Reference: PMC5727165, “A switch in nucleotide affinity governs activation of the Src and Tec family kinases” (Scientific Reports, 2017)

Target: T1, Src^32K (Mus musculus, UniProt P05480)
T1 construct: mouse Src^85-535 (Src^32K); GST (cleaved yes); made in house; host or cells: baculovirus-infected Sf9 insect cells, co-expressed with human Csk
Experiment: Competition nucleotide displacement assay (Mant-ADP, fluorescence anisotropy)
Type: binding
Conditions: Src^32K (pY527); displacement of Mant-ADP
Protocol: Figure 1 Autoinhibited Itk and Src kinases preferentially bind ADP. (a) Schematic of constructs evaluated in this study. Itk^32K, Src^32K, and Src^32KΔC contain the conserved module of SH3, SH2, and kinase (^32K) domains. Src^32K was truncated by […] to remove its C-terminal tail (inclusive of the Y527 phosphorylation site), generating a construct we refer to as Src^32KΔC (ΔC-tail). (b) Competition nucleotide displacement assay for Itk^32K. 40 μM Itk^32K was incubated with 40 μM Mant-ADP until equilibrium was established. Unlabelled ADP or AMPPNP was titrated into the reaction and fluorescence anisotropy monitored. Comparison of the equilibrium inhibition constants (K i) gives an indication of the relative strength of nucleotide binding. […] (c) Competition nucleotide displacement assay for Src^32K. 40 μM tail-phosphorylated Src^32K (pY527) or doubly phosphorylated Src^32K pY416 (pY527) was incubated with 40 μM Mant-ADP until equilibrium was established. Unlabelled ADP or AMPPNP was titrated into the reaction and fluorescence anisotropy monitored. Solid lines correspond to Src^32K, dashed lines to Src^32K pY416. AMPPNP binds to Src^32K with 20-fold weaker affinity than ADP. […] (d) Omit map showing clear electron density for ADP and a single magnesium ion in the nucleotide-binding pocket of Src. The magnesium is coordinated by Asn391, Asp404, and the α- and β- phosphates of ADP. The β-phosphate is directly coordinated by the guanidinium side chain of Arg388. […]
Since the concentration of ATP in the cell is typically higher than ADP[33],[34], we performed nucleotide competition assays in order to determine which nucleotide is bound in vivo. We measured the concentrations of ADP or AMPPNP required to displace Mant-ADP. […]
The binding constants for ADP and AMPPNP were determined for Src and Itk proteins by fluorescence anisotropy, using 2′/3′-Mant-labelled nucleotides (Jena Bioscience). […] Unlabelled nucleotide was titrated into the reaction and fluorescence anisotropy monitored. The equilibrium inhibition constant for the unlabelled nucleotide was calculated from the fitted curve.

T1 sequence (P05480 85-535): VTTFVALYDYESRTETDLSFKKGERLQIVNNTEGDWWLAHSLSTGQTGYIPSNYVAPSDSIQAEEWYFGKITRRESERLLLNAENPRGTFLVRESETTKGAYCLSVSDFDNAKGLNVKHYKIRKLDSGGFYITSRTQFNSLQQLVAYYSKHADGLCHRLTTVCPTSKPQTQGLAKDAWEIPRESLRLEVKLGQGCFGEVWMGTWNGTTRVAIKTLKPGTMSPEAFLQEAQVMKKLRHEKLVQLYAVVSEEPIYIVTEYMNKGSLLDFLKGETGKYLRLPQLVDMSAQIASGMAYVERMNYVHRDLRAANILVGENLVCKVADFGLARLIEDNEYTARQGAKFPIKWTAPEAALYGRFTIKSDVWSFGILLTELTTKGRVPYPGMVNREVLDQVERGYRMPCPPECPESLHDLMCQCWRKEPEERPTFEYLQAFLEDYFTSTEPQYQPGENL

Structure (SMILES): Nc1ncnc2c1ncn2[C@@H]1O[C@H](COP(=O)(O)OP(=O)(O)O)[C@@H](O)[C@H]1O [ADP]
- fold difference in Ki, ADP preferred over AMPPNP: 19 fold
